Converted amounts (≈) assume the structure as drawn. Each block holds one molecule with its values, some of them ahead of it.
How the values were obtained:
Type in all cases: physicochemical
[1] = Dynamic vapor sorption - stability of solid form; conditions: 25°C, humidity cycles 0-95% RH
Protocol: Vapour sorption experiments were performed in the instrument SPSx-1µ (Projekt Messtechnik, Ulm, Germany) at temperature of 25°C and the humidity cycles as shown below. Humidity cycle conditions: [table]

[2] = Solubility in aqueous solvents; conditions: for Solubility: 37°C
Protocol: Approx. 340 mg (exactly weighed) test substance was weighed into a glass vial, followed by addition of 2.5 ml solvent. A stirring bar was added, the vial was fixed in a block heater at 37°C and the suspension was stirred with approx. 250 rpm. After 15 min and 1 h, samples were withdrawn, filtered through a 0.2 µm disposable filter, 50 µl of the clear filtrate were diluted with 950 µl DMSO and 2 µl thereof were analyzed by HPLC/UV.

[3] = Long term stability of solid form at 40°C/75%r.h.

Stability of solid form (in DVS) [1]: stable
Solubility ([2]; 0.01 N HCl ∼pH2.2, 15 min, listed as RBC free base form 6): 0.4 mg/mL (≈ 0.92 mM)
Solubility ([2]; 0.01 N HCl ∼pH2.2, 1 h, listed as RBC free base form 6): 0.2 mg/mL (≈ 0.46 mM)
Solubility ([2]; 20mM NaAc pH4.5, 15 min, listed as RBC free base form 6): 12.2 mg/mL (≈ 28.1 mM)
Solubility ([2]; 20mM NaAc pH4.5, 1 h, listed as RBC free base form 6): 9.7 mg/mL (≈ 22.3 mM)
Solubility ([2]; 50mM KH2PO4 pH6.5 + 2%TPGS, 15 min, listed as RBC free base form 6): 2.8 mg/mL
Solubility ([2]; 50mM KH2PO4 pH6.5 + 2%TPGS, 1 h, listed as RBC free base form 6): 2.4 mg/mL
Solubility ([2]; 50mM KH2PO4 pH6.8, 15 min, listed as RBC free base form 6): 1.2 mg/mL (≈ 2.76 mM)
Solubility ([2]; 50mM KH2PO4 pH6.8, 1 h, listed as RBC free base form 6): 0.5 mg/mL (≈ 1.15 mM)
Long term stability at 40°C/75%r.h. (4 weeks) [3]: stable
Long term stability at 40°C/75%r.h. (12 weeks) [3]: stable
Structure (SMILES): CN(C)C(=O)c1cc2cnc(Nc3ccc(N4CCNCC4)cn3)nc2n1C1CCCC1 [Form 6, 7-cyclopentyl-N,N-dimethyl-2-((5-(piperazin-1-yl)pyridin-2-yl)amino)-7H-pyrrolo[2,3-d]pyrimidine-6-carboxamide]

Stability of solid form (in DVS) [1]: Unstable at RT and ambient conditions
Structure (SMILES): CN(C)C(=O)c1cc2cnc(Nc3ccc(N4CCNCC4)cn3)nc2n1C1CCCC1 [Form 4, 7-cyclopentyl-N,N-dimethyl-2-((5-(piperazin-1-yl)pyridin-2-yl)amino)-7H-pyrrolo[2,3-d]pyrimidine-6-carboxamide, reference compound]

Stability of solid form (in DVS) [1]: stable
Solubility ([2]; 0.01 N HCl ∼pH2.2, 15 min, listed as RBC free base form 7): 3.1 mg/mL (≈ 7.13 mM)
Solubility ([2]; 0.01 N HCl ∼pH2.2, 1 h, listed as RBC free base form 7): 3.0 mg/mL (≈ 6.9 mM)
Solubility ([2]; 20mM NaAc pH4.5, 15 min, listed as RBC free base form 7): 11.3 mg/mL (≈ 26 mM)
solubility at 1 h ([2]; 20 mM sodium acetate buffer, 37 °C, pH 4.5, aqueous buffer, thermodynamic from solid, 20mM NaAc pH4.5, 1 h): 11.5 mg/mL (≈ 26.5 mM)
Solubility ([2]; 50mM KH2PO4 pH6.5 + 2%TPGS, 15 min, listed as RBC free base form 7): 0.8 mg/mL
Solubility ([2]; 50mM KH2PO4 pH6.5 + 2%TPGS, 1 h, listed as RBC free base form 7): 0.8 mg/mL
Solubility ([2]; 50mM KH2PO4 pH6.8, 15 min, listed as RBC free base form 7): 0.5 mg/mL (≈ 1.15 mM)
Solubility ([2]; 50mM KH2PO4 pH6.8, 1 h, listed as RBC free base form 7): 1.1 mg/mL (≈ 2.53 mM)
Long term stability at 40°C/75%r.h. (4 weeks) [3]: stable
Long term stability at 40°C/75%r.h. (12 weeks) [3]: stable
Structure (SMILES): CN(C)C(=O)c1cc2cnc(Nc3ccc(N4CCNCC4)cn3)nc2n1C1CCCC1 [Form 7, 7-cyclopentyl-N,N-dimethyl-2-((5-(piperazin-1-yl)pyridin-2-yl)amino)-7H-pyrrolo[2,3-d]pyrimidine-6-carboxamide]

Stability of solid form (in DVS) [1]: stable
Solubility ([2]; 0.01 N HCl ∼pH2.2, 15 min, listed as RBC free base form 1): 3.8 mg/mL (≈ 8.74 mM)
Solubility ([2]; 0.01 N HCl ∼pH2.2, 1 h, listed as RBC free base form 1): 3.4 mg/mL (≈ 7.82 mM)
Solubility ([2]; 20mM NaAc pH4.5, 1 h, listed as RBC free base form 1): 14.2 mg/mL (≈ 32.7 mM)
solubility at 15 min ([2]; 20 mM sodium acetate buffer, 37 °C, pH 4.5, aqueous buffer, thermodynamic from solid, 20mM NaAc pH4.5, 15 min): 14.2 mg/mL (≈ 32.7 mM)
Solubility ([2]; 50mM KH2PO4 pH6.5 + 2%TPGS, 15 min, listed as RBC free base form 1): 3.6 mg/mL
Solubility ([2]; 50mM KH2PO4 pH6.5 + 2%TPGS, 1 h, listed as RBC free base form 1): 1.5 mg/mL
Solubility ([2]; 50mM KH2PO4 pH6.8, 15 min, listed as RBC free base form 1): 1.5 mg/mL (≈ 3.45 mM)
Solubility ([2]; 50mM KH2PO4 pH6.8, 1 h, listed as RBC free base form 1): 1.6 mg/mL (≈ 3.68 mM)
Long term stability at 40°C/75%r.h. (4 weeks) [3]: stable
Long term stability at 40°C/75%r.h. (12 weeks) [3]: stable
Structure (SMILES): CN(C)C(=O)c1cc2cnc(Nc3ccc(N4CCNCC4)cn3)nc2n1C1CCCC1 [Form 1, 7-cyclopentyl-N,N-dimethyl-2-((5-(piperazin-1-yl)pyridin-2-yl)amino)-7H-pyrrolo[2,3-d]pyrimidine-6-carboxamide]

Solubility ([2]; 0.01 N HCl ∼pH2.2, 15 min, listed as RBC free base form 8): 4.0 mg/mL (≈ 9.2 mM)
Solubility ([2]; 0.01 N HCl ∼pH2.2, 1 h, listed as RBC free base form 8): 1.0 mg/mL (≈ 2.3 mM)
Solubility ([2]; 50mM KH2PO4 pH6.5 + 2%TPGS, 15 min, listed as RBC free base form 8): 3.9 mg/mL
Solubility ([2]; 50mM KH2PO4 pH6.5 + 2%TPGS, 1 h, listed as RBC free base form 8): 0.9 mg/mL
Long term stability at 40°C/75%r.h. (4 weeks) [3]: stable
Long term stability at 40°C/75%r.h. (12 weeks) [3]: stable
Structure (SMILES): CN(C)C(=O)c1cc2cnc(Nc3ccc(N4CCNCC4)cn3)nc2n1C1CCCC1 [Form 8, 7-cyclopentyl-N,N-dimethyl-2-((5-(piperazin-1-yl)pyridin-2-yl)amino)-7H-pyrrolo[2,3-d]pyrimidine-6-carboxamide]

Source: patent publication EP3156406A1, “CRYSTALLINE FORMS OF RIBOCICLIB FREE BASE” (ratiopharm GmbH, priority 2015, dated 2017)
